# Laboratory results taken from paper PMC11859184, “Synthesis and Evaluation of ^68Ga- and ^177Lu-Labeled [diF-Pro^14]Bombesin(6−14) Analogs for Detection and Radioligand Therapy of Gastrin-Releasing Peptide Receptor-Expressing Cancer” (Pharmaceuticals, 2025).
# Where two headings read alike, the source gives them in different places.
# Assay: Ex vivo biodistribution of 177Lu-labeled ligands in PC-3 tumor-bearing mice
# Conditions: mouse, intravenous; for tissue uptake at 1 h: 1 h pi; for tissue uptake at 4 h: 4 h pi; for tissue uptake at 24 h: 24 h pi; for tissue uptake at 72 h: 72 h pi
# Protocol: SPECT/CT imaging was conducted using an MI Labs (Houten, The Netherlands) U-SPECT-II/CT scanner with a custom-made ultra-high sensitivity big mouse collimator (2 mm pinhole size) following published procedure. The experiments were obtained in accordance with the same protocol established in the PET/CT imaging and ex vivo biodistributions section. The mice were used for SPECT/CT imaging and ex vivo biodistributions studies once the tumors reached a diameter of 5–8 mm. PC-3 tumor-bearing mice were sedated (2.5% isoflurane in O2) and injected with 31.4–36.9 MBq of the ^177Lu-labeled ligand through a lateral caudal tail vein. The mouse was imaged at 1, 4, 24, 72, and 120 h pi. At each time point, a 5 min CT scan was performed with 615 μA and 60 kV parameters for localization and attenuation, followed by two 30 min static SPECT scans in list mode with an energy window centered around 208 keV. The U-SPECT II software was used to reconstruct data, and the images were decay corrected to the time of injection with PMOD v 3.402 (PMOD Technologies GmbH, Fallanden, Switzerland).
# For ex vivo biodistribution studies, the mice were injected with ~3–5 MBq of the ^177Lu-labeled ligand (n = 5). At 1, 4, 24, 72, and 120 h post-injection, the mice were anesthetized with 2% isoflurane, euthanized by CO2 inhalation, and the tissues/organs of interest were […] for radioactivity counting. The blocking study was performed at 1 h pi via co-injection of the ^177Lu-labeled ligand with 100 μg of [D-Phe^6,Leu-NHEt^13,des-Met^14]Bombesin(6–14).
# [1] = kidneys, n = 5, read-out: Kidneys uptake
# [2] = large intestine, n = 5, read-out: Large intestine uptake
# [3] = liver, n = 5, read-out: Liver uptake
# [4] = lungs, n = 5, read-out: Lungs uptake
# [5] = muscle, n = 5, read-out: Muscle uptake
# [6] = pancreas, n = 5, read-out: Pancreas uptake
# [7] = small intestine, n = 5, read-out: Small intestine uptake
# [8] = spleen, n = 5, read-out: Spleen uptake
# [9] = stomach, n = 5, read-out: Stomach uptake
# [10] = testes, n = 5, read-out: Testes uptake
compound,measurement,setting,value
"CC(C)C[C@@H](CN1CC(F)(F)C[C@H]1C(N)=O)NC(=O)[C@H](Cc1c[nH]cn1)NC(=O)CN(C)C(=O)[C@@H](NC(=O)[C@H](C)NC(=O)[C@H](Cc1c[nH]c2ccccc12)NC(=O)[C@H](CCC(N)=O)NC(=O)[C@@H](Cc1ccccc1)NC(=O)CN1CCC(NC(=O)CN2CCN(CC(=O)O)CCN(CC(=O)O)CCN(CC(=O)O)CC2)CC1)C(C)C [[^177Lu]Lu-LW02080, metal not drawn]",tissue uptake at 120 h,"heart, 120 h pi, n = 5, read-out: Heart uptake",0.01 ± 0.01 %ID/g
same,tissue uptake at 1 h,"kidneys, 100 ug, blocked (100 µg GRPR antagonist co-injected), read-out: Kidneys uptake",4.17 ± 0.95 %ID/g
same,tissue uptake at 1 h,[1],2.65 ± 0.48 %ID/g
same,tissue uptake at 4 h,[1],1.88 ± 0.35 %ID/g
same,tissue uptake at 24 h,[1],0.89 ± 0.28 %ID/g
same,tissue uptake at 72 h,[1],0.26 ± 0.08 %ID/g
same,tissue uptake at 120 h,"kidneys, 120 h pi, n = 5, read-out: Kidneys uptake",0.12 ± 0.03 %ID/g
same,tissue uptake at 1 h,"large intestine, 100 ug, blocked (100 µg GRPR antagonist co-injected), read-out: Large intestine uptake",0.21 ± 0.09 %ID/g
same,tissue uptake at 1 h,[2],0.17 ± 0.09 %ID/g
same,tissue uptake at 4 h,[2],0.34 ± 0.04 %ID/g
same,tissue uptake at 24 h,[2],0.15 ± 0.06 %ID/g
same,tissue uptake at 72 h,[2],0.06 ± 0.02 %ID/g
same,tissue uptake at 120 h,"large intestine, 120 h pi, n = 5, read-out: Large intestine uptake",0.02 ± 0.01 %ID/g
same,tissue uptake at 1 h,"liver, 100 ug, blocked (100 µg GRPR antagonist co-injected), read-out: Liver uptake",0.33 ± 0.08 %ID/g
same,tissue uptake at 1 h,[3],0.27 ± 0.1 %ID/g
same,tissue uptake at 4 h,[3],0.2 ± 0.08 %ID/g
same,tissue uptake at 24 h,[3],0.09 ± 0.01 %ID/g
same,tissue uptake at 72 h,[3],0.04 ± 0.01 %ID/g
same,tissue uptake at 120 h,"liver, 120 h pi, n = 5, read-out: Liver uptake",0.03 ± 0.01 %ID/g
same,tissue uptake at 1 h,"lungs, 100 ug, blocked (100 µg GRPR antagonist co-injected), read-out: Lungs uptake",0.45 ± 0.22 %ID/g
same,tissue uptake at 1 h,[4],0.43 ± 0.04 %ID/g
same,tissue uptake at 4 h,[4],0.13 ± 0.08 %ID/g
same,tissue uptake at 24 h,[4],0.05 ± 0.03 %ID/g
same,tissue uptake at 72 h,[4],0.02 %ID/g
same,tissue uptake at 120 h,"lungs, 120 h pi, n = 5, read-out: Lungs uptake",0.05 ± 0.03 %ID/g
same,tissue uptake at 1 h,"muscle, 100 ug, blocked (100 µg GRPR antagonist co-injected), read-out: Muscle uptake",0.15 ± 0.04 %ID/g
same,tissue uptake at 1 h,[5],0.06 ± 0.01 %ID/g
same,tissue uptake at 4 h,[5],0.01 %ID/g
same,tissue uptake at 24 h,[5],0.01 %ID/g
same,tissue uptake at 1 h,"pancreas, 100 ug, blocked (100 µg GRPR antagonist co-injected), read-out: Pancreas uptake",0.34 ± 0.09 %ID/g
same,tissue uptake at 1 h,[6],0.39 ± 0.08 %ID/g
same,tissue uptake at 4 h,[6],0.06 ± 0.02 %ID/g
same,tissue uptake at 24 h,[6],0.04 ± 0.01 %ID/g
same,tissue uptake at 72 h,[6],0.01 %ID/g
same,tissue uptake at 120 h,"pancreas, 120 h pi, n = 5, read-out: Pancreas uptake",0.01 %ID/g
same,tissue uptake at 120 h,"pancreas, all time points (1, 4, 24, 72, 120 h pi), read-out: pancreas uptake",< 0.5 %ID/g
same,tissue uptake at 1 h,"small intestine, 100 ug, blocked (100 µg GRPR antagonist co-injected), read-out: Small intestine uptake",0.48 ± 0.18 %ID/g
same,tissue uptake at 1 h,[7],0.28 ± 0.03 %ID/g
same,tissue uptake at 4 h,[7],0.07 ± 0.03 %ID/g
same,tissue uptake at 24 h,[7],0.03 ± 0.01 %ID/g
same,tissue uptake at 72 h,[7],0.01 %ID/g
same,tissue uptake at 120 h,"small intestine, 120 h pi, n = 5, read-out: Small intestine uptake",0.01 %ID/g
same,tissue uptake at 1 h,"spleen, 100 ug, blocked (100 µg GRPR antagonist co-injected), read-out: Spleen uptake",0.16 ± 0.05 %ID/g
same,tissue uptake at 1 h,[8],0.14 ± 0.04 %ID/g
same,tissue uptake at 4 h,[8],0.07 ± 0.01 %ID/g
same,tissue uptake at 24 h,[8],0.07 ± 0.02 %ID/g
same,tissue uptake at 72 h,[8],0.04 ± 0.01 %ID/g
same,tissue uptake at 120 h,"spleen, 120 h pi, n = 5, read-out: Spleen uptake",0.03 %ID/g
same,tissue uptake at 1 h,"stomach, 100 ug, blocked (100 µg GRPR antagonist co-injected), read-out: Stomach uptake",0.26 ± 0.14 %ID/g
same,tissue uptake at 1 h,[9],0.08 ± 0.04 %ID/g
same,tissue uptake at 4 h,[9],0.02 %ID/g
same,tissue uptake at 24 h,[9],0.07 ± 0.04 %ID/g
same,tissue uptake at 72 h,[9],0.02 ± 0.01 %ID/g
same,tissue uptake at 120 h,"stomach, 120 h pi, n = 5, read-out: Stomach uptake",0.01 ± 0.01 %ID/g
same,tissue uptake at 1 h,"testes, 100 ug, blocked (100 µg GRPR antagonist co-injected), read-out: Testes uptake",0.22 ± 0.09 %ID/g
same,tissue uptake at 1 h,[10],0.2 ± 0.04 %ID/g
same,tissue uptake at 4 h,[10],0.03 ± 0.01 %ID/g
same,tissue uptake at 24 h,[10],0.03 ± 0.01 %ID/g
same,tissue uptake at 72 h,[10],0.01 %ID/g
same,tissue uptake at 120 h,"testes, 120 h pi, n = 5, read-out: Testes uptake",0.01 %ID/g
